Like-named read-outs stand apart in the source and are kept apart here.
Columns and labels:
Assay type in all cases: cell-based, human
H2073 = experiment: Cell viability dose-response, H2073; details: for AC50: NCI-H2073, Table 8, 12-point dose-response starting at 50 micromolar
Description: (§1) FIG. 6A. […] Cell viability is plotted vs. compound concentration. Compound was added to cells plated at 15% confluence in 96-well plates in RPMI-1640 media supplemented with 5% Fetal Bovine Serum and 2 mM L-Glutamine. After 4 days of incubation, ATP levels were measured using Cell Titer Glo (Promega). Data are presented as the average of 2 replicates ±SEM.
(§2) Selectivity may be measured by the half maximal inhibitory concentration (IC50), which, as used herein, is a measure of the effectiveness of a compound in killing cells. This quantitative measure indicates how much of a particular compound is needed to kill a particular cell population by half (e.g., as indicated by the amount of ATP). […] The IC50 can be determined by constructing a dose-response curve. The lower the IC50, the higher the potency, and the greater the difference between IC50 values for different cell lines (e.g., sensitive lines vs. insensitive lines, and sensitive lines vs. normal lines) the greater the selectivity. […]
(§3) With this information, we synthesized and tested a series of small molecules derived in conception from the oxalamide and chromone scaffold including N-acyl ureas, as shown in Tables 6-8. Each compound was tested in a 12-point dose-response study starting at 50 micromolar and decreasing in 3-fold increments to sub-nanomolar concentrations, in duplicate. Additionally, one or more additional cell line was tested in the same way.

H2122 = experiment: Cell viability dose-response, H2122; details: for AC50: NCI-H2122, Table 8, 12-point dose-response starting at 50 micromolar
Summary of the method: (§4)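 Viability read as total ATP (Cell Titer Glo) following 4 days' compound exposure, with IC50 derived from dose-response curves. Duplicate 12-point series, top concentration 50 micromolar with 3-fold steps, on cells seeded at 15% confluence in RPMI-1640, 5% FBS, 2 mM L-glutamine.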

H1819 = experiment: Cell viability dose-response, H1819; details: Homo sapiens; for IC50: NCI-H1819, Tables 3 and 4, read-out: IC50 (uM) vs indicated non-small cell lung cancer cell line H1819; for AC50: NCI-H1819, Table 8, 12-point dose-response starting at 50 micromolar
Summary of the method: as §4

H2009 = experiment: Cell viability dose-response, H2009; details: Homo sapiens; for IC50: NCI-H2009, Tables 3 and 4, read-out: IC50 (uM) vs indicated non-small cell lung cancer cell line H2009; for AC50: NCI-H2009, Table 8, 12-point dose-response starting at 50 micromolar
Description: as §1, §2, §3

HCC44 = experiment: Cell viability dose-response, HCC44; details: Homo sapiens; for IC50: HCC44, Tables 3 and 4, read-out: IC50 (uM) vs indicated non-small cell lung cancer cell line HCC44; for AC50: HCC44, Table 8, 12-point dose-response starting at 50 micromolar
Summary of the method: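 Proliferation/viability determined by ATP content following 4-day incubation with test compound in RPMI-1640 + 5% serum + 2 mM glutamine. IC50 taken as the concentration halving ATP signal on the dose-response curve.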

[1] = Tables 3 and 4, read-out: IC50 (uM) vs indicated non-small cell lung cancer cell line H2073
[2] = Homo sapiens, NCI-H2122, Table 9, competitor, read-out: IC50 to H2122 cells
[3] = Homo sapiens, NCI-H2122, Tables 3 and 4, read-out: IC50 (uM) vs indicated non-small cell lung cancer cell line H2122
[4] = Homo sapiens, NCI-H2073, 12-point dose-response starting at 50 micromolar, 3-fold increments, in duplicate, read-out: toxicity data, H2073
[5] = Homo sapiens, NCI-H2122, 12-point dose-response starting at 50 micromolar, 3-fold increments, in duplicate, read-out: toxicity data, H2122

SMILES	AC50 (H2009) [µM]	AC50 (H2122; Homo sapiens) [µM]	AC50 (HCC44) [µM]	further results
COC(=O)c1ccc(C(=O)Nc2nc3ccc(N)cc3s2)cc1 [SW001296-3]	–	–	–	IC50 (H2073; [1]): 49.5 µM; IC50 (H2122; Tables 3 and 4, read-out: IC50 (uM) vs indicated non-small cell lung cancer cell line H2122): 18.5 µM; IC50 (H1819): 28.6 µM
O=C(Nc1nc2ccccc2s1)c1ccc(C(=O)c2ccccc2)cc1 [SW208652-1]	–	–	–	IC50 (H2009): 2.42 µM; IC50 (H2122; [2]): 0.00644 µM; IC50 (H2122; [3]): 0.009 µM; IC50 (HCC44): 0.025 µM
O=C(Nc1nc2ccccc2[nH]1)c1ccc(C(=O)c2ccccc2)cc1 [SW208653-1]	–	–	–	IC50 (H2009): 1.8 µM; IC50 (H2122; [2]): 0.0383 µM; IC50 (H2122; [3]): 0.042 µM; IC50 (HCC44): 3.63 µM
O=c1c(-c2ccc(Cl)cc2)coc2cc(OCc3cnn(-c4ccccc4)c3)ccc12 [SW208738]	49.5	≥ 49.5	49.5	–
O=c1c(-c2cccc(O)c2)coc2cc(OCc3cnn(-c4ccccc4)c3)ccc12 [SW208740]	39	21	49.5	–
O=c1c(-c2ccc(O)cc2)coc2cc(OCc3cnn(-c4ccccc4)c3)ccc12 [SW208757-1]	5.63	≥ 49.5	49.5	–
Cc1ccc(/C=C/c2coc3cc(OCc4cnn(-c5ccccc5)c4)ccc3c2=O)cc1 [SW208758-1]	16.5	≥ 49.5	49.5	–
COc1ccc(-c2coc3cc(OCc4cnn(-c5ccccc5)c4)ccc3c2=O)cc1 [SW208759-1]	49.5	≥ 49.5	49.5	–
O=c1c(-c2ccc(F)cc2F)coc2cc(OCc3cnn(-c4ccccc4)c3)ccc12 [SW208760-1]	20.7	0.11	49.5	–
O=c1c(-c2ccc3ccccc3c2)coc2cc(OCc3cnn(-c4ccccc4)c3)ccc12 [SW208761-1]	32.4	≥ 49.5	49.5	–
O=c1c(-c2ccc(F)c(F)c2)coc2cc(OCc3cnn(-c4ccccc4)c3)ccc12 [SW208762-1]	43.2	0.18	49.5	–
O=c1c(-c2cc(C(F)(F)F)cc(C(F)(F)F)c2)coc2cc(OCc3cnn(-c4ccccc4)c3)ccc12 [SW208763-1]	3.26	0.08	1.36	–
O=c1c(C2=CCCCC2)coc2cc(OCc3cnn(-c4ccccc4)c3)ccc12 [SW208764-1]	49.5	≥ 49.5	49.5	–
CCOc1ccc(-c2coc3cc(OCc4cnn(-c5ccccc5)c4)ccc3c2=O)cc1 [SW208765-1]	16.5	≥ 49.5	49.5	–
O=c1c(C2CC2)coc2cc(OCc3cnn(-c4ccccc4)c3)ccc12 [SW208766-1]	49.5	16.5	49.5	–
COc1ccc(-c2coc3cc(OCc4cnn(-c5ccccc5)c4)ccc3c2=O)c(C)c1 [SW208767-1]	49.5	2.07	4.06	–
O=c1c(C#Cc2ccccc2)coc2cc(OCc3cnn(-c4ccccc4)c3)ccc12 [SW208768-1]	19.9	24.8	16.5	–
O=c1c(Cc2ccccc2)coc2cc(OCc3cnn(-c4ccccc4)c3)ccc12 [SW208769-1]	49.5	0.027	3.18	–
Cn1c(NC(=O)c2ccc(C(=O)c3ccccc3)cc2)nc2ccccc21 [SW208770-1]	–	–	–	IC50 (H2009): 3.06 µM; IC50 (H2122; [3]): 31.4 µM; IC50 (HCC44): 12.7 µM
O=C(Nc1nccs1)c1ccc(C(=O)c2ccccc2)cc1 [SW208771-1]	–	–	–	IC50 (H2009): 49.5 µM; IC50 (H2122; [3]): 32.9 µM; IC50 (HCC44): 8.43 µM
Cn1ccc(=O)c2ccc(OCc3cnn(-c4ccccc4)c3)cc21 [SW208832-1]	7.51	7.56	49.5	–
O=c1c(C(O)c2ccccc2)coc2cc(OCc3cnn(-c4ccccc4)c3)ccc12 (centres unmarked) [SW208833-1]	8.3	0.216	9.86	–
O=C(Nc1ncc(Cc2ccccc2)s1)c1ccc(C(=O)c2ccccc2)cc1 [SW208834]	–	–	–	IC50 (H2009): 16.5 µM; IC50 (H2122; [3]): 3.55 µM; IC50 (HCC44): 49.5 µM

SMILES	AC50 (H2009) [µM]	AC50 (H2122; Homo sapiens) [µM]	AC50 (HCC44) [µM]	further results
O=C(c1ccccc1)c1coc2cc(OCc3cnn(-c4ccccc4)c3)ccc2c1=O [SW208844-1]	30	0.864	23.7	–
O=C(Nc1ncc(-c2ccccc2)s1)c1ccc(C(=O)c2ccccc2)cc1 [SW209017]	–	–	–	IC50 (H2009): 4.95 µM; IC50 (H2122; [3]): 5.76 µM; IC50 (HCC44): 49.5 µM
O=C(Nc1nc(-c2ccccc2)cs1)c1ccc(C(=O)c2ccccc2)cc1 [SW209018]	–	–	–	IC50 (H2009): 14.8 µM; IC50 (H2122; [3]): 4.73 µM; IC50 (HCC44): 49.5 µM
C#CCc1coc2cc(OCc3cnn(-c4ccccc4)c3)ccc2c1=O [SW209021-1]	–	0.846	–	AC50 (H2073; Homo sapiens): 49.5 µM; AC50 (H1819): 49.5 µM
C=CCc1coc2cc(OCc3cnn(-c4ccccc4)c3)ccc2c1=O [SW209022-1]	–	0.323	–	AC50 (H2073; Homo sapiens): 49.5 µM; AC50 (H1819): 47.1 µM
COc1ccc(CCNC(=O)C(=O)Nc2ccc(OCc3ccc(Br)cc3)cc2)cc1 [SW209048-1]	–	–	–	IC50 (H2073; [4]): ≥ 49.5 µM; IC50 (H2122; [5]): 0.157 µM
C#CCOc1ccc(C(=O)c2ccc(C(=O)Nc3nc4ccc(OC)cc4s3)cc2)cc1 [SW209049-1]	–	–	–	IC50 (H2073; [1]): 81 µM; IC50 (H2122; [3]): 0.131 µM; IC50 (H1819): 21 µM
COc1ccc(CCNC(=O)C(=O)Nc2ccc(COc3ccc(Br)cc3)cc2)cc1 [SW209050-1]	–	–	–	IC50 (H2073; [4]): 25.9 µM; IC50 (H2122; [5]): 0.031 µM
COc1ccc(CCNC(=O)C(=O)Nc2ccc(Oc3ccc(Br)cc3)cc2)cc1 [SW209075-1]	–	–	–	IC50 (H2073; [4]): 8.07 µM; IC50 (H2122; [5]): 0.029 µM
O=C(Nc1nc2ccc(OCCCBr)cc2s1)c1ccc(C(=O)c2ccccc2)cc1 [SW 208235]	–	–	–	IC50 (H2009): 49.5 µM; IC50 (H2122; [3]): ≥ 49.5 µM; IC50 (HCC44): 49.5 µM
O=C(Nc1nc2ccc(OCCCCBr)cc2s1)c1ccc(C(=O)c2ccccc2)cc1 [SW 208236]	–	–	–	IC50 (H2009): 49.5 µM; IC50 (H2122; [3]): ≥ 49.5 µM; IC50 (HCC44): 49.5 µM
COc1cc2sc(NC(=O)c3ccc(C(=O)c4ccccc4)cc3)nc2cc1Br [SW 208237]	–	–	–	IC50 (H2009): 6.9 µM; IC50 (H2122; [3]): 0.61 µM; IC50 (HCC44): 6.5 µM
O=c1c(Oc2ccccc2)coc2cc(OCc3cnn(-c4ccccc4)c3)ccc12 [SW 208586-1]	49.5	0.11	0.15	–
Cc1oc2cc(OCc3cnn(-c4ccccc4)c3)ccc2c(=O)c1Oc1ccccc1F [SW 208587-1]	16.5	0.39	49.5	–
O=c1c(Oc2ccccc2Cl)coc2cc(OCc3cnn(-c4ccccc4)c3)ccc12 [SW 208589-1]	4.76	0.12	49.5	–
O=c1c(Oc2ccc(F)cc2)coc2cc(OCc3cnn(-c4ccccc4)c3)ccc12 [SW 208591-1]	16	0.15	0.07	–
Cc1ccccc1Oc1coc2cc(OCc3cnn(-c4ccccc4)c3)ccc2c1=O [SW 208593-1]	> 15	0.11	> 15	–
O=c1c(Oc2cccc(Cl)c2)coc2cc(OCc3cnn(-c4ccccc4)c3)ccc12 [SW 208594-1]	16.5	0.22	0.08	–
Cc1cccc(Oc2coc3cc(OCc4cnn(-c5ccccc5)c4)ccc3c2=O)c1 [SW 208595-1]	16.5	0.2	0.1	–
COc1ccc(Oc2coc3cc(OCc4cnn(-c5ccccc5)c4)ccc3c2=O)cc1 [SW 208596-1]	16.5	0.22	16.5	–
O=c1ccoc2cc(OCc3cnn(-c4ccccc4)c3)ccc12 [SW 208629-1]	49.5	≥ 49.5	49.5	–
c1ccc(-n2cc(COc3ccc4cc(OCc5cnn(-c6ccccc6)c5)ccc4c3)cn2)cc1 [SW 208630-1]	49.5	≥ 49.5	49.5	–
O=c1c(-c2ccccc2)coc2cc(OCc3cnn(-c4ccccc4)c3)ccc12 [SW 208631-1]	49.5	0.28	49.5	–
